Measured values taken from publication PMC9309159, “Identification of heptapeptides targeting a lethal bacterial strain in septic mice through an integrative approach” (Signal Transduction and Targeted Therapy, 2022).
Entries after “also recorded” stand apart in the source; their conditions may differ. Ends that are not written are not given here. * marks the point of attachment. Biotin = O=C1N[C@H]2[C@H](CS[C@H]2CCCCC(=O)*)N1

Key:
DEGQ protein = experiment: SPRi assay of peptide binding to DEGQ protein; set-up: species or system E. coli MSI001; conditions: control peptide immobilized on chip, value printed in picture of Fig. 8e
Procedure: (§1) Protein profiles were determined by cPCoA distance among samples and characterized by close intragroup distances among samples. b Hierarchical clustering analysis of proteins from the HEE, VTK and input groups. […] Label-free mass spectrometry was used to quantitate proteins from the HEE, VTK and input groups. Red represents high expression, while blue represents low expression. c Volcano plot of proteins from the VTK group and HEE group. […] DEGP or DEGQ protein at different concentrations (5 nmol/L, 10 nmol/L, 20 nmol/L) in solution flowed on an SPRi chip. Binding data were collected and analyzed by commercial SPRi analysis software (Plexera SPR Data Analysis Model, Plexera, USA).
(§2) To measure the binding affinity of peptides with targeted proteins, a PlexArray HT A100 (Plexera, USA) Surface Plasmon Resonance imaging (SPRi) system was used to monitor the whole procedure in real time. Briefly, a chip with a well-prepared peptide microarray was assembled with a plastic flow cell for sample loading. The operation details for the PlexArray HT were as described previously.[65] The purified protein samples were prepared at determined concentrations in PBS running buffer, while glycine-HCl buffer (10 mmol/L, pH 2.0) was used for regeneration. Binding data were collected and analyzed by SPR Data Analysis Module software (Plexera, USA). […]

DEGP protein = experiment: SPRi assay of peptide binding to DEGP protein; set-up: species or system E. coli MSI001; conditions: control peptide immobilized on chip, value printed in picture of Fig. 8e
Procedure: as §1, §2

bacterial strain MSI001 = experiment: In vitro antibacterial assay (colony counting); format: cell-based, Escherichia coli; conditions: 1 × 10^3 CFU, peptide 0.25, 0.5, 1 μmol/L, 37 °C, 1-8 h, colony count, n = 3
Procedure: Fig. 6 Antimicrobial activity of the C7C-LL37 fusion peptides in vitro. a Primary structures and physical properties of the C7C and LL37 fusion peptides, including LL37, VTK-LL37, LL37-VTK, KYY-LL37 and LL37-KYY, ISS-LL37, INS-LL37. Net charge, PI and GRAVY values were acquired as described above. b Inhibitory effect of C7C-LL37 fusion peptides on bacterial growth. A C7C-LL37 fusion peptide or LL37 alone was added to the cultured bacterial strain MSI001 (1 × 10^3 CFU) at final concentrations of 0.25 μmol/L, 0.5 μmol/L and 1 μmol/L. Sterile DPBS was used as control. After incubation with the C7C-LL37 or LL37 peptides at 37 °C for different times (1-8 h), bacterial colonies were counted. n = 3. *P < 0.05, VTK-LL37 group compared to LL37 group; ^#P < 0.05, LL37-VTK group compared to LL37 group. c, d Inhibitory effect of VTK-LL37 on biofilm formation. The VTK-LL37 or LL37 peptide was added to the bacterial culture at a final concentration of 0-4 μmol/L and incubated at 37 °C for 3 days. Bacterial culture medium and the peptides were refreshed every day. The biofilm was stained with 1% crystal violet, and the precipitates were dissolved in 95% ethanol, followed by detection of absorbance at 570 nm (A570) (c). Moreover, the biofilm was observed under a microscope (d). n = 5. *P < 0.05, VTK-LL37 group compared to LL37 group […]

[1] = biological target: T1, DEGP protein, purified (SPRi analyte) (E. coli (strain MSI001), UniProt P0C0V0 27-474); experiment: SPR; conditions: both partners purified
T1 sequence (looked up): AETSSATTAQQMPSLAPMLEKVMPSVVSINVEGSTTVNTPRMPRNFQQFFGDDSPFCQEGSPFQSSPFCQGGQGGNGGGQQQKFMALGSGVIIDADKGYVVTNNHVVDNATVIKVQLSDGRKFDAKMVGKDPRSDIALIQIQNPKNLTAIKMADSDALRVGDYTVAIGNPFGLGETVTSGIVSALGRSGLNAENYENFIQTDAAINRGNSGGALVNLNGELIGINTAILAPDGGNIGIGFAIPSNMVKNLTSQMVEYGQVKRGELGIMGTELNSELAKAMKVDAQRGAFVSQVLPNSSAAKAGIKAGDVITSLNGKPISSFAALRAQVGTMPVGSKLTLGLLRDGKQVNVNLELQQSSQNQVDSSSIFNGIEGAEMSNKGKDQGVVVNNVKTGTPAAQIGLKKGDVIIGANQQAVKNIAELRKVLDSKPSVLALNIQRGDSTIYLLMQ

[2] = biological target: T2, DEGQ protein, purified (SPRi analyte) (E. coli (strain MSI001), UniProt P39099 28-455); experiment: SPR; conditions: both partners purified
T2 sequence (looked up): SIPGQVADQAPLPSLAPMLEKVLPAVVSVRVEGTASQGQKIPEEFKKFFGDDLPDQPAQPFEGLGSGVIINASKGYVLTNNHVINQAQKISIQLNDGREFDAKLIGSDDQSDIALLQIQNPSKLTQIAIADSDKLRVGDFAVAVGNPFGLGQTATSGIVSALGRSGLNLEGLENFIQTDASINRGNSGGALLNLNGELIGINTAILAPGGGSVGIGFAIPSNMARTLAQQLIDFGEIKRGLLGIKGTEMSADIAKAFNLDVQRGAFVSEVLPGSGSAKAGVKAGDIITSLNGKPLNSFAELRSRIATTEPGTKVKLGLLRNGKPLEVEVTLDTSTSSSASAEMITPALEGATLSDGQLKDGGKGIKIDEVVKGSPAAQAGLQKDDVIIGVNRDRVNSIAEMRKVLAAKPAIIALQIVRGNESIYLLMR

Question: What does the source list for “Biotin-CHEEWLPAC (cysteine pairing not given here) [control HEE heptapeptide]”?
Answer: Kd (DEGQ protein): 1000 nM; Kd (DEGP protein): 5250 nM

Question: How did the “inhibitory effect on bacterial growth of MSI001” value (bacterial strain MSI001) turn out when “LLGDFFRKSKEKIGKEFKRIVQRIKDFLRNLVPRTESVPGVGCVTKLGSLC [LL37-VTK]” was run?
Answer: The value was “inhibited MSI001 bacterial growth but also showed stronger antibiotic activity than LL37 alone in the early stage (1-3 h); also recorded: stronger bacteriostatic activity than other LL37 fusion peptides”.

B1: VTK heptapeptide VTKLGSL, synthesized (immobilised on the SPRi chip) (peptide)
peptide: VTKLGSL
notes: also called VTK peptide; source: synthetic peptide
Question: B1 was tested. Which Kd [1] did it give?
Answer: The Kd was 15.8 nM.

Question: What about the Kd [2] of the same molecule?
Answer: Its Kd is 1.73 nM.
